Laboratory results reported in ChEMBL document CHEMBL3045654, “Mechanisms of Low Susceptibility to Imidacloprid in a Laboratory Strain of the Small Brown Planthopper, Laodelphax striatellus FALLEN” (J Pestic Sci, 1997).

How the values were obtained:
Laodelphax striatellus [1] = assay: Insecticidal activity againstLaodelphax striatella S (small brown planthopper) treated topically after 24 hr; type: functional; conditions: topical
Laodelphax striatellus [2] = assay: Insecticidal activity againstLaodelphax striatella N (small brown planthopper) treated topically after 24 hr in presence of 40 ng/insect of piperonylbutoxide; type: functional; conditions: topical
Laodelphax striatellus [3] = assay: Drug penetration inLaodelphax striatella S (small brown planthopper) at 0.1 ng/insect treated topically after 1 hr; type: ADME, organism-based; conditions: in vivo, topical_or_ocular
Laodelphax striatellus [4] = assay: Drug penetration inLaodelphax striatella N (small brown planthopper) at 0.1 ng/insect treated topically after 1 hr; type: ADME, organism-based; conditions: in vivo, topical_or_ocular
Laodelphax striatellus [5] = assay: Insecticidal activity againstLaodelphax striatella N (small brown planthopper) treated topically after 24 hr in presence of 2 ng/insect of tributylphosportrithioate; type: functional; conditions: topical
Laodelphax striatellus [6] = assay: Insecticidal activity againstLaodelphax striatella N (small brown planthopper) treated topically after 24 hr; type: functional; conditions: topical
Laodelphax striatellus [7] = assay: Insecticidal activity againstLaodelphax striatella N (small brown planthopper) treated topically after 24 hr in presence of 20 ng/insect of […]; type: functional; conditions: topical

In the case of O=[N+]([O-])NC1=NCCN1Cc1ccc(Cl)nc1 [IMIDACLOPRID], the LD50 (Laodelphax striatellus [1]) was 0.12 mg/kg, the LD50 (Laodelphax striatellus [2]) was 1.11 mg/kg and the Drug uptake (Laodelphax striatellus [3]) was 20%. For the same compound, the Drug uptake (Laodelphax striatellus [4]) was 20%, the LD50 (Laodelphax striatellus [5]) was 1.06 mg/kg and the LD50 (Laodelphax striatellus [6]) was 2.17 mg/kg. For the same compound, the LD50 (Laodelphax striatellus [7]) was 1.19 mg/kg.
